From patent publication US20250034201A1, “PRODRUGS OF GANAXOLONE” (priority 2022, published 2025)

Assay: Stability in simulated intestinal fluid (SIF)
Type: in vitro ADME
Conditions: SIF with pancreatin pH 6.8, 37° C., 60 min
Experimental: (§1) The stability of exemplary compounds in simulated gastric fluid (SGF) and simulated intestinal fluid (SIF) was tested according to the following protocol.

Structure (SMILES)	SIF (% remain, 60 min)
CC(=O)[C@H]1CC[C@H]2[C@@H]3CC[C@H]4C[C@](C)(OC(=O)CN5CCN(C)CC5)CC[C@]4(C)[C@H]3CC[C@]12C [Compound 102]	74.7%
CC(=O)[C@H]1CC[C@H]2[C@@H]3CC[C@H]4C[C@](C)(OCOC(=O)CN5CCOCC5)CC[C@]4(C)[C@H]3CC[C@]12C [Compound 504]	49.0%
COCCOCCOCC(=O)OCO[C@]1(C)CC[C@@]2(C)[C@@H](CC[C@@H]3[C@@H]2CC[C@]2(C)[C@@H](C(C)=O)CC[C@@H]32)C1 [Compound 503]	~90%
CC(=O)[C@H]1CC[C@H]2[C@@H]3CC[C@H]4C[C@](C)(OC(=O)CNCC(=O)OC(C)(C)C)CC[C@]4(C)[C@H]3CC[C@]12C [Compound 109]	92.9%
CCOC(=O)CNCC(=O)O[C@]1(C)CC[C@@]2(C)[C@@H](CC[C@@H]3[C@@H]2CC[C@]2(C)[C@@H](C(C)=O)CC[C@@H]32)C1 [Compound 103]	75.9%

Same assay, conditions: simulated gi fluid; SIF with pancreatin pH 6.8, 37° C., 2 μg/mL; read-out: SIF t1/2

Structure (SMILES)	half-life
CC(=O)[C@H]1CC[C@H]2[C@@H]3CC[C@H]4C[C@](C)(OCOC(=O)CN5CCOCC5)CC[C@]4(C)[C@H]3CC[C@]12C [Compound 504]	88.4 min
COCCOCCOCC(=O)OCO[C@]1(C)CC[C@@]2(C)[C@@H](CC[C@@H]3[C@@H]2CC[C@]2(C)[C@@H](C(C)=O)CC[C@@H]32)C1 [Compound 503]	~30 min

Assay: in vitro
Conditions: human plasma, 2 μg/mL, 37° C.
Experimental: The plasma stability of exemplary compounds was tested using rat, mice, dog, and human plasma, according to the following protocol. For each test compound, samples at a final concentration of 2 μg/mL were prepared in blank plasma of selected species. All samples were incubated at 37° C. on a 150-RPM orbital shaker, and an aliquot was removed at pre-determined time points (0, 15, 30, 60, and 120 minutes). Samples were precipitated with three volumes of acetonitrile containing propranolol as internal standard, and centrifuged for 10 min at 2000 g before LC/MS/MS analysis of the supernatant solutions.

Structure (SMILES)	Human plasma t90
CC(=O)[C@H]1CC[C@H]2[C@@H]3CC[C@H]4C[C@](C)(OCOC(=O)CN5CCOCC5)CC[C@]4(C)[C@H]3CC[C@]12C [Compound 504]	2.54 min

Same assay, conditions: human, plasma

Structure (SMILES)	half-life
CC(=O)[C@H]1CC[C@H]2[C@@H]3CC[C@H]4C[C@](C)(OCOC(=O)CN5CCOCC5)CC[C@]4(C)[C@H]3CC[C@]12C [Compound 504]	17.1 min
COCCOCCOCC(=O)OCO[C@]1(C)CC[C@@]2(C)[C@@H](CC[C@@H]3[C@@H]2CC[C@]2(C)[C@@H](C(C)=O)CC[C@@H]32)C1 [Compound 503]	< 30 min

Assay: in vitro
Type: in vitro ADME, human
Conditions: human liver microsomes 0.5 mg/mL, with NADPH, compound 0.5 μM, 37° C.; read-out: Human Liver Microsomal Stability t1/2
Experimental: For several compounds only human liver microsomal stability was tested. […] The microsomal assays were carried out with and without the addition of NADPH at a final concentration of 1 mM. For negative control samples, NADPH reagent was not added. […] Note that compounds undergo only Phase I metabolism in liver microsomes.

Structure (SMILES)	half-life
CC(=O)[C@H]1CC[C@H]2[C@@H]3CC[C@H]4C[C@](C)(OCOC(=O)CN5CCOCC5)CC[C@]4(C)[C@H]3CC[C@]12C [Compound 504]	2.5 min
COCCOCCOCC(=O)OCO[C@]1(C)CC[C@@]2(C)[C@@H](CC[C@@H]3[C@@H]2CC[C@]2(C)[C@@H](C(C)=O)CC[C@@H]32)C1 [Compound 503]	5.65 min

Same assay, conditions: human liver microsomes 0.5 mg/mL, with NADPH, compound 0.5 μM; read-out: Human Liver Microsomal Stability CLint (uL/min/mg liver) (converted)

Structure (SMILES)	microsomal CLint
CC(=O)[C@H]1CC[C@H]2[C@@H]3CC[C@H]4C[C@](C)(OCOC(=O)CN5CCOCC5)CC[C@]4(C)[C@H]3CC[C@]12C [Compound 504]	554 µL/min/mg
COCCOCCOCC(=O)OCO[C@]1(C)CC[C@@]2(C)[C@@H](CC[C@@H]3[C@@H]2CC[C@]2(C)[C@@H](C(C)=O)CC[C@@H]32)C1 [Compound 503]	245 µL/min/mg

Same assay, conditions: human liver microsomes, no NADPH, 1 h, compound 0.5 μM

Structure (SMILES)	Human Liver Microsomal Stability no NADPH, % remain 1 h
CC(=O)[C@H]1CC[C@H]2[C@@H]3CC[C@H]4C[C@](C)(OCOC(=O)CN5CCOCC5)CC[C@]4(C)[C@H]3CC[C@]12C [Compound 504]	0.8%
COCCOCCOCC(=O)OCO[C@]1(C)CC[C@@]2(C)[C@@H](CC[C@@H]3[C@@H]2CC[C@]2(C)[C@@H](C(C)=O)CC[C@@H]32)C1 [Compound 503]	11.6%

Assay: Stability in simulated gastric fluid (SGF)
Type: in vitro ADME
Conditions: SGF with pepsin pH 1.2, 37° C., 60 min
Experimental: as §1

Structure (SMILES)	SGF (% remain, 60 min)
CC(=O)[C@H]1CC[C@H]2[C@@H]3CC[C@H]4C[C@](C)(OC(=O)CN5CCN(C)CC5)CC[C@]4(C)[C@H]3CC[C@]12C [Compound 102]	56.3%
CC(=O)[C@H]1CC[C@H]2[C@@H]3CC[C@H]4C[C@](C)(OCOC(=O)CN5CCOCC5)CC[C@]4(C)[C@H]3CC[C@]12C [Compound 504]	0.4%
COCCOCCOCC(=O)OCO[C@]1(C)CC[C@@]2(C)[C@@H](CC[C@@H]3[C@@H]2CC[C@]2(C)[C@@H](C(C)=O)CC[C@@H]32)C1 [Compound 503]	68%
CC(=O)[C@H]1CC[C@H]2[C@@H]3CC[C@H]4C[C@](C)(OC(=O)CNCC(=O)OC(C)(C)C)CC[C@]4(C)[C@H]3CC[C@]12C [Compound 109]	96.2%
CCOC(=O)CNCC(=O)O[C@]1(C)CC[C@@]2(C)[C@@H](CC[C@@H]3[C@@H]2CC[C@]2(C)[C@@H](C(C)=O)CC[C@@H]32)C1 [Compound 103]	98.4%

Same assay, conditions: simulated gi fluid; SGF with pepsin pH 1.2, 37° C., 2 μg/mL; read-out: SGF t1/2

Structure (SMILES)	half-life
CC(=O)[C@H]1CC[C@H]2[C@@H]3CC[C@H]4C[C@](C)(OCOC(=O)CN5CCOCC5)CC[C@]4(C)[C@H]3CC[C@]12C [Compound 504]	7.41 min
COCCOCCOCC(=O)OCO[C@]1(C)CC[C@@]2(C)[C@@H](CC[C@@H]3[C@@H]2CC[C@]2(C)[C@@H](C(C)=O)CC[C@@H]32)C1 [Compound 503]	118 min
